In the supplement of paper PMC12420376:

What was measured:
[1] = test system: KURAMOCHI; assay: drug sensitivity score (DSS2) on cancer cell count; higher = more sensitive; extreme values may be limits of the assay; details: 72 h
How it was run: (§1)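 Ovarian cancer cells grown alone or 1:1 with lung or skin fibroblasts in direct co-culture were treated for 72 h on 384-well plates carrying 528 approved and investigational compounds at 5 concentrations. Fixed cells were stained for CK8/18 with Hoechst and imaged to count cancer cells. A drug sensitivity score was then derived in Breeze from logistic curve fits.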

[2] = test system: OVCAR8; assay: as above; details: 72 h
How it was run: as §1

[3] = co-cultured fibroblast: BJHTERT
[4] = co-cultured fibroblast: none (monoculture)

SMILES | drug sensitivity score [1, 3] | drug sensitivity score ([1]; co-cultured fibroblast: WI38) | drug sensitivity score [1, 4] | drug sensitivity score [2, 3] | drug sensitivity score ([2]; co-cultured fibroblast: WI38) | drug sensitivity score [2, 4]
C[C@@H]1C=C2C(=O)O[C@@H]3CC[C@H](C1)[C@]23O [Galiellalactone] | 6.9 DSS | 8.2 DSS | 3.5 DSS | 0 DSS | 3.9 DSS | 0 DSS
O=C(c1ccc(F)c(F)c1Nc1ccc(I)cc1F)N1CC(O)([C@@H]2CCCCN2)C1 [Cobimetinib] | 11.5 DSS | 6.4 DSS | 7.2 DSS | 8.4 DSS | 2.1 DSS | 9.6 DSS
CC[C@H](CC#N)OC(=O)N[C@@H](C)c1cccc(NC(=O)Nc2ccc(-c3cnco3)c(OC)c2)c1 [AVN944] | 12.7 DSS | 17.5 DSS | 19.4 DSS | 22.4 DSS | 15 DSS | 26.6 DSS
CS(=O)(=O)N1CCN(Cc2cc3nc(-c4cccc5[nH]ncc45)nc(N4CCOCC4)c3s2)CC1 [Pictilisib] | 15 DSS | 12.1 DSS | 18.2 DSS | 6.7 DSS | 5.4 DSS | 7.9 DSS
C[C@@H]1CCN(C(=O)CC#N)C[C@@H]1N(C)c1ncnc2[nH]ccc12 [Tofacitinib] | 0 DSS | 0 DSS | 12.2 DSS | 0 DSS | 0 DSS | 0 DSS
O=C(Nc1cccnc1)N1CCC(Cc2cccc(Oc3ccc(C(F)(F)F)cn3)c2)CC1 [PF-3845] | 0.5 DSS | 0 DSS | 0 DSS | 0 DSS | 0 DSS | 1.9 DSS
COc1ccc(Cn2ccc3ccc(C(=O)NO)cc32)cc1 | 6.6 DSS | 2.3 DSS | 3.2 DSS | 2.5 DSS | 0.7 DSS | 3 DSS
CC(C)C[C@H](NC(=O)[C@H](Cc1ccccc1)NC(=O)c1cnccn1)B(O)O [Bortezomib] | 11.5 DSS | 25.6 DSS | 15.7 DSS | 17.3 DSS | 27.3 DSS | 26 DSS
O[C@H](C[C@H]1c2c(F)cccc2-c2cncn21)[C@H]1CC[C@H](O)CC1 [GDC-0919] | 1.3 DSS | 0 DSS | 0 DSS | 0 DSS | 0 DSS | 1.6 DSS
C=CCn1c(=O)c2cnc(Nc3ccc(N4CCN(C)CC4)cc3)nc2n1-c1cccc(C(C)(C)O)n1 [AZD1775] | 15.3 DSS | 12.7 DSS | 13.2 DSS | 21 DSS | 14.9 DSS | 18.4 DSS
COCCNCc1ccc(-c2cc3nccc(Oc4ccc(NC(=S)NC(=O)Cc5ccc(F)cc5)cc4F)c3s2)nc1 [Glesatinib] | 2.7 DSS | 1.6 DSS | 2.3 DSS | 0 DSS | 3.5 DSS | 0 DSS
NC(=O)/C(=C/n1cnc(-c2cc(C(F)(F)F)cc(C(F)(F)F)c2)n1)c1cncnc1 [Eltanexor] | 20 DSS | 20.8 DSS | 26.5 DSS | 26.7 DSS | 24.4 DSS | 26.8 DSS
CC(=O)O[C@H]1C(=O)[C@@]2(C)[C@H]([C@H](OC(=O)c3ccccc3)[C@]3(O)C[C@H](OC(=O)[C@H](O)[C@@H](NC(=O)c4ccccc4)c4ccccc4)C(C)=C1C3(C)C)[C@]1(OC(C)=O)CO[C@@H]1C[C@@H]2O [Paclitaxel] | 23.2 DSS | 24.5 DSS | 16.1 DSS | 29.6 DSS | 30.9 DSS | 24 DSS
CCNC(=O)C[C@@H]1N=C(c2ccc(Cl)cc2)c2cc(OC)ccc2-n2c(C)nnc21 [Molibresib] | 6.5 DSS | 9.9 DSS | 6.7 DSS | 12.2 DSS | 5.8 DSS | 13.6 DSS
CC[C@@H]1C(=O)N(C)c2cnc(Nc3ccc(C(=O)N[C@H]4CC[C@H](N5CCN(CC6CC6)CC5)CC4)cc3OC)nc2N1C(C)C [Volasertib] | 16.4 DSS | 17.9 DSS | 21.4 DSS | 26.5 DSS | 21.5 DSS | 24.7 DSS
Cc1ccc(Nc2nccc(N(C)c3ccc4c(C)n(C)nc4c3)n2)cc1S(N)(=O)=O [Pazopanib] | 2 DSS | 2 DSS | 5.9 DSS | 0 DSS | 3.5 DSS | 0 DSS
CC(C)C[C@H](NC(=O)[C@H](CCc1ccccc1)NC(=O)CN1CCOCC1)C(=O)N[C@@H](Cc1ccccc1)C(=O)N[C@@H](CC(C)C)C(=O)[C@@]1(C)CO1 [Carfilzomib] | 21.8 DSS | 23.4 DSS | 22.6 DSS | 26.2 DSS | 18 DSS | 17.8 DSS
CC[C@@](C)(Nc1ccnc(-c2c[nH]c3ncccc23)n1)C(=O)NCC(F)(F)F [Decernotinib] | 0 DSS | 3.3 DSS | 0 DSS | 0 DSS | 0 DSS | 0 DSS
CC/C(=C(\c1ccc(O)cc1)c1ccc(OCCN(C)C)cc1)c1ccccc1 [4-hydroxytamoxifen] | 4.8 DSS | 1.8 DSS | 2.2 DSS | 0.2 DSS | 0 DSS | 4.9 DSS
CC(C)n1nc(-c2ccc3oc(N)nc3c2)c2c(N)ncnc21 [Sapanisertib] | 13.5 DSS | 12.4 DSS | 15.1 DSS | 11 DSS | 7.9 DSS | 11.8 DSS
CC#CC(=O)N1CC[C@@H](n2c(=O)n(-c3ccc(Oc4ccccc4)cc3)c3c(N)ncnc32)C1 [Tirabrutinib] | 1.4 DSS | 0 DSS | 0 DSS | 0 DSS | 0 DSS | 0 DSS
C[C@@H](Oc1cc(-c2cnn(C3CCNCC3)c2)cnc1N)c1c(Cl)ccc(F)c1Cl [Crizotinib] | 0 DSS | 0 DSS | 0 DSS | 0.7 DSS | 0 DSS | 0 DSS
Cn1cnc2c(F)c(Nc3ccc(Br)cc3F)c(C(=O)NOCCO)cc21 [Binimetinib] | 2.2 DSS | 0 DSS | 0 DSS | 2.4 DSS | 0 DSS | 4 DSS
CN(C)c1cc2c(cc1Sc1nc3c(N)nccc3n1CCNCC(C)(C)C)OCO2 [CUDC-305] | 12 DSS | 14.9 DSS | 18.4 DSS | 16.5 DSS | 16.7 DSS | 23.2 DSS
CC(C)[C@@H](CS(=O)(=O)C(C)C)N1C(=O)[C@@](C)(CC(=O)O)C[C@H](c2cccc(Cl)c2)[C@H]1c1ccc(Cl)cc1 [AMG-232] | 0.2 DSS | 0 DSS | 0.5 DSS | 1.6 DSS | 0 DSS | 0.7 DSS
O=c1[nH]c(=O)n([C@H]2C[C@H](O)[C@@H](CO)O2)cc1F [Floxuridine] | 19.9 DSS | 19 DSS | 20.7 DSS | 18.7 DSS | 17.9 DSS | 26.7 DSS
